Experiment [1] has as its target T1, Peroxisome proliferator-activated receptor alpha (Homo sapiens, UniProt Q07869).
T1 sequence (Q07869 whole entry): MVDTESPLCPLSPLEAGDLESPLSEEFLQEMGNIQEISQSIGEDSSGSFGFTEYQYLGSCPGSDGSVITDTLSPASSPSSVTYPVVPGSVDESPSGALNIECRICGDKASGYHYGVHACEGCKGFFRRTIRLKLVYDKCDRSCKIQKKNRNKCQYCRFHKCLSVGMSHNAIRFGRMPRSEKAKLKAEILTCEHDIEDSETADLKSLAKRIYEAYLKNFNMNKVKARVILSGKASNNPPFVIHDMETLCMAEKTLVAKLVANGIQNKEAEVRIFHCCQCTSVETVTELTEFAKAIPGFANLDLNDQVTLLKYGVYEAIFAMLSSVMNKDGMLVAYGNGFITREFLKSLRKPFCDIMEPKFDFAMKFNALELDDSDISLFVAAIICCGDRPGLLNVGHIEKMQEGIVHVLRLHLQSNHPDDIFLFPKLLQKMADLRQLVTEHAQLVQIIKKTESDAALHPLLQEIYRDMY
Put plainly: Agonist activity at PPARalpha transfected in HEK293 cells at 1 uM. The class given is functional, cell-based.

Experiment [2] has as its target T2, Peroxisome proliferator-activated receptor delta (Homo sapiens, UniProt Q03181).
T2 sequence (Q03181 whole entry): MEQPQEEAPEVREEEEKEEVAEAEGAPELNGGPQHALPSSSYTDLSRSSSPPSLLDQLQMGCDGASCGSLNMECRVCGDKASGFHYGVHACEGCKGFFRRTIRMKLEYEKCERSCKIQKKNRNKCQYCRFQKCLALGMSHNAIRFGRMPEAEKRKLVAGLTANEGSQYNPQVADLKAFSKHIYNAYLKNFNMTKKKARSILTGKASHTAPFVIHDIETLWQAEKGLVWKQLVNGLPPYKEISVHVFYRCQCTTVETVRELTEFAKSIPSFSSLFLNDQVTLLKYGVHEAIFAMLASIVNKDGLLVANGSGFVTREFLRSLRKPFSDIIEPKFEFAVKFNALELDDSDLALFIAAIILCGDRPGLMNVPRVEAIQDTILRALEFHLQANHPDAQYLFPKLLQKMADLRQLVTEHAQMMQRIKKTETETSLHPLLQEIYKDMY
The experiment in a line: Agonist activity at PPARdelta transfected in HEK293 cells at 1 uM. The class given is functional, cell-based.

Experiment [3] has as its target T3, Peroxisome proliferator-activated receptor gamma (Homo sapiens, UniProt P37231).
T3 sequence (P37231 whole entry): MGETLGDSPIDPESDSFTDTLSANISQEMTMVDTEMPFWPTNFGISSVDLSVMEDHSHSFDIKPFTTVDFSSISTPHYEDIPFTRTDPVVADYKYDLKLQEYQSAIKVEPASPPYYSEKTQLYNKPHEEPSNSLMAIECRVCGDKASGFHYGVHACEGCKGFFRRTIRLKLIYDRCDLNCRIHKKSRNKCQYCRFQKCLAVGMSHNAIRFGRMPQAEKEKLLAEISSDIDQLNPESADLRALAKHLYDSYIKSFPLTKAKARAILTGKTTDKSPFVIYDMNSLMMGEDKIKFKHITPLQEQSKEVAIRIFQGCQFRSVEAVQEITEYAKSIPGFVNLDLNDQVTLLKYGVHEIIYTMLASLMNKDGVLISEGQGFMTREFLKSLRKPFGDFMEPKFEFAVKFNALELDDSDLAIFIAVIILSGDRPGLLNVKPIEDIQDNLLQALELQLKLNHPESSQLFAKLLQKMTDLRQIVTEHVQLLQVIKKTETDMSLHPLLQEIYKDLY
The experiment in a line: Agonist activity at PPARgamma transfected in HEK293 cells at 1 uM. Format: functional, cell-based.

The target of experiment [4] is T1, Peroxisome proliferator-activated receptor alpha. Put plainly: Agonist activity at PPARalpha transfected in HEK293 cells. Format: functional, cell-based.
Experiment [5] concerns the target T2, Peroxisome proliferator-activated receptor delta. The experiment in a line: Agonist activity at PPARdelta transfected in HEK293 cells. Format: functional, cell-based.
The target of experiment [6] is T3, Peroxisome proliferator-activated receptor gamma. The experiment in a line: Agonist activity at PPARgamma transfected in HEK293 cells. The class given is functional, cell-based.
For experiment [7], the target named is T4, Peroxisome proliferator-activated receptor alpha (Mus musculus, UniProt P23204).
T4 sequence (P23204 whole entry): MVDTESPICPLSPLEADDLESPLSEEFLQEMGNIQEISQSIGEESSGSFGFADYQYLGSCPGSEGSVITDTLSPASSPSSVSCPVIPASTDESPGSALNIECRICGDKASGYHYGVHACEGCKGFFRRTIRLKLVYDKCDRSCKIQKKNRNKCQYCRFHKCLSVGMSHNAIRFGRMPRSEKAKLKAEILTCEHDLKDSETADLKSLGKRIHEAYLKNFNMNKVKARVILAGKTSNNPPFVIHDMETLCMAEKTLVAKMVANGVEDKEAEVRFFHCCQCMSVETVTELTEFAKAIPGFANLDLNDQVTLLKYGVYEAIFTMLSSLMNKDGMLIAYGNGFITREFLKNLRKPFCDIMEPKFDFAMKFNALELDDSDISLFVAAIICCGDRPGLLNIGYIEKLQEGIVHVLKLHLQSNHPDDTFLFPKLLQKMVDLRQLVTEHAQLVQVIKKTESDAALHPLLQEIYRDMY
Put plainly: Agonist activity at mouse PPARalpha transfected in HEK293 cells. Format: functional, cell-based.

For experiment [8], the target named is T5, Peroxisome proliferator-activated receptor delta (Mus musculus, UniProt P35396).
T5 sequence (P35396 whole entry): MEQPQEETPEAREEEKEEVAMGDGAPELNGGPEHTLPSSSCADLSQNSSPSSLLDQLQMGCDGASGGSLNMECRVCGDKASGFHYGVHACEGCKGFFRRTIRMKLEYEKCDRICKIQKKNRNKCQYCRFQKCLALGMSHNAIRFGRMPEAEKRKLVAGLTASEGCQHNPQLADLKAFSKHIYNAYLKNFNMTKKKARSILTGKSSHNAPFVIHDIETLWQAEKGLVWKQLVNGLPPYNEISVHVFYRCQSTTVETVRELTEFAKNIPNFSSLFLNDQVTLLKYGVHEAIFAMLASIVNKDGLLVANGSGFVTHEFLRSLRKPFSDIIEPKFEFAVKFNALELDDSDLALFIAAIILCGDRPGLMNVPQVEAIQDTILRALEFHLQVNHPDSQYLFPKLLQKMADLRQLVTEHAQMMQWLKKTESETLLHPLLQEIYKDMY
Put plainly: Agonist activity at mouse PPARdelta transfected in HEK293 cells. The class given is functional, cell-based.

The target in experiment [9] is Peroxisome proliferator-activated receptor alpha (Homo sapiens, UniProt Q07869, I272F). Put plainly: Agonist activity at human PPARalpha containing mutant I272F domain transfected in HEK293 cells.
Sequence of Peroxisome proliferator-activated receptor alpha (Homo sapiens, UniProt Q07869, I272F) (Q07869 whole entry I272F, the tested form may be a part): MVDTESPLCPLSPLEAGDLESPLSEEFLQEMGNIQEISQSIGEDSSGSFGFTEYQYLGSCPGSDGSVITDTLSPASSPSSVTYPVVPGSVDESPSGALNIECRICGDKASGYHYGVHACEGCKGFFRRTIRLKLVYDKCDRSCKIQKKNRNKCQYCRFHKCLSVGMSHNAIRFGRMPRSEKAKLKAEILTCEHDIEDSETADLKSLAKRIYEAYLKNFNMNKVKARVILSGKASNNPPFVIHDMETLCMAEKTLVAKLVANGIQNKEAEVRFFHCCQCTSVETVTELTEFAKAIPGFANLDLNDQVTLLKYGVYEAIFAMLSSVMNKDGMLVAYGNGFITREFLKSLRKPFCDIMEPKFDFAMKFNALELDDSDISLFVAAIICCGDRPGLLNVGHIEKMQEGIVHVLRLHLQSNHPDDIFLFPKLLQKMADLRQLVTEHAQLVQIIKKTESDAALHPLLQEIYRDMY

Structures are written as SMILES.

In the case of `CCC(Cc1ccc(F)c(C(=O)NCc2ccc(C(F)(F)F)cc2)c1)C(=O)O` (stereo not drawn), the EC50 result in experiment [1], in [2] and in experiment [3] was “Not Active” each time.
`CCC(Cc1ccc(OC)c(C(=O)NCc2ccc(C(F)(F)F)c(F)c2)c1)C(=O)O` (stereo not drawn): the figures for the half-maximal effective concentration (EC50) in experiment [4], in [5] and in experiment [6] were 25 nM, 500 nM and 1600 nM, respectively.
In [6], `CCC(Cc1ccc(OC)c(CNC(=O)c2ccc(F)c(C(F)(F)F)c2)c1)C(=O)O` (stereo not drawn) had a concentration for a half-maximal effect (EC50) greater than 10000 nM.
`CCC(Cc1ccc(OC)c(CNC(=O)c2ccc(C(F)(F)F)cc2)c1)C(=O)O` (stereo not drawn): the 50% effective concentration (EC50) stood at 10 nM in experiment [4], 130 nM in experiment [5] and 2000 nM in experiment [6].
With `CC[C@H](Cc1ccc(OC)c(CNC(=O)c2ccc(C(F)(F)F)c(F)c2)c1)C(=O)O`, the EC50 was 180 nM in experiment [4], 700 nM in experiment [5] and greater than 10000 nM in experiment [6].
On to `CCC(Cc1ccc(OC)c(C(=O)NCc2ccc(C(F)(F)F)cc2)c1)C(=O)O` (racemic), for which the EC50 in [4] was 70 nM; in experiment [5] it was 700 nM.
As for `CC[C@@H](Cc1ccc(OC)c(CNC(=O)c2ccc(C(F)(F)F)c(F)c2)c1)C(=O)O`, the EC50 in experiment [7] was determined as 1000 nM; in [4], 10 nM; in experiment [8], 130 nM; in [5], 40 nM; in experiment [9], 630 nM.
On to `CCC(Cc1ccc(OC)c(C(=O)NCc2ccc(C(F)(F)F)cc2F)c1)C(=O)O` (stereo not drawn), for which the EC50 stood at 20 nM in experiment [4], 1000 nM in experiment [5] and 500 nM in experiment [6].
